Active and inactive are the calls of the source. The rule behind the calls is not given here.
Tests used:
[1] = Binding affinity for FK506 binding protein; conditions: read-out: Ki app
Mus musculus [2] = species on record: Mus musculus; assay: In vitro immunosuppressive activity by splenocyte mitogenesis assay in spleen cells from BDF1 female mice at 1 pM to 10 uM concentration; not active; type: functional, cell-based
[3] = Binding affinity for FK506 binding protein; value ranges from 2-6 nM; conditions: read-out: Ki app
Mus musculus [4] = species on record: Mus musculus; assay: In vitro immunosuppressive activity by splenocyte mitogenesis assay in spleen cells from BDF1 female mice at 1 pM to 10 uM concentration; type: functional, cell-based

Structure (SMILES)	Ki [1] [nM]	Activity (Mus musculus [2])	Ki [3] [nM]	IC50 (Mus musculus [4]) [nM]
COCC(=O)[C@H](C)C[C@H](C)\C=C/C=C/C=C(\C)[C@H](C[C@@H]1CC[C@@H](C)[C@](O)(C(=O)C(=O)N2CCCC[C@H]2C(=O)OC(C)c2ccccc2)O1)OC (stereo partly drawn)	41	inactive	–	–
CO[C@@H](C[C@@H]1CC[C@@H](C)[C@](O)(C(=O)C(=O)N2CCCC[C@H]2C(=O)OCc2ccccc2)O1)/C(C)=C/C=C/C=C\[C@@H](C)C[C@@H](C)C(=O)[C@H](OC)[C@H](O)/C(C)=C/[C@@H](C)C(=O)/C=C/[C@H](C)C[C@@H]1CC[C@@H](O)[C@H](OC)C1	–	inactive	2	–
COCC(=O)[C@H](C)C[C@H](C)\C=C/C=C/C=C(\C)[C@H](C[C@@H]1CC[C@@H](C)[C@](O)(C(=O)C(=O)N2CCCC[C@H]2C(=O)NCCCc2ccccc2)O1)OC	32	inactive	–	–
CCC(C)(C)C(=O)C(=O)N1CCCC[C@H]1C(=O)O[C@@H](CC(=O)[C@H](C)/C=C(\C)[C@@H](O)[C@@H](OC)C(=O)[C@H](C)C[C@H](C)\C=C/C=C/C=C(\C)[C@H](C[C@@H]1CC[C@@H](C)C(=O)O1)OC)[C@H](C)C[C@@H]1CC[C@@H](O)[C@H](OC)C1	20	inactive	–	–
COC(=O)[C@@H]1CCCCN1C(=O)C(=O)[C@]1(O)O[C@H](C[C@H](OC)/C(C)=C/C=C/C=C\[C@@H](C)C[C@@H](C)C(=O)[C@H](OC)[C@H](O)/C(C)=C/[C@@H](C)C(=O)/C=C/[C@H](C)C[C@@H]2CC[C@@H](O)[C@H](OC)C2)CC[C@H]1C	29	inactive	–	–
COCC(=O)[C@H](C)C[C@H](C)\C=C/C=C/C=C(\C)[C@H](C[C@@H]1CC[C@@H](C)[C@](O)(C(=O)C(=O)N2CCCC[C@H]2C(=O)NCc2ccccc2)O1)OC	110	inactive	–	–
COCC(=O)[C@H](C)C[C@H](C)\C=C/C=C/C=C(\C)[C@H](C[C@@H]1CC[C@@H](C)[C@](O)(C(=O)C(=O)N2CCCC[C@H]2C(=O)OC/C=C/c2ccccc2)O1)OC	31	inactive	–	–
COCC(=O)[C@H](C)C[C@H](C)\C=C/C=C/C=C(\C)[C@H](C[C@@H]1CC[C@@H](C)[C@](O)(C(=O)C(=O)N2CCCC[C@H]2C(=O)OC(C)C)O1)OC	51	inactive	–	–
COCC(=O)[C@H](C)C[C@H](C)\C=C/C=C/C=C(\C)[C@H](C[C@@H]1CC[C@@H](C)[C@](O)(C(=O)C(=O)N2CCCC[C@H]2C(=O)O)O1)OC	500	inactive	–	–
COCC(=O)[C@H](C)C[C@H](C)\C=C/C=C/C=C(\C)[C@H](C[C@@H]1CC[C@@H](C)[C@](O)(C(=O)C(=O)N2CCCC[C@H]2C(=O)OC)O1)OC	12	inactive	–	–
CO[C@H]1C[C@@H]2CC[C@@H](C)[C@@](O)(O2)C(=O)C(=O)N2CCCC[C@H]2C(=O)O[C@H]([C@H](C)C[C@@H]2CC[C@@H](O)[C@H](OC)C2)CC(=O)[C@H](C)/C=C(\C)[C@@H](O)[C@@H](OC)C(=O)[C@H](C)C[C@H](C)/C=C/C=C/C=C/1C [SIROLIMUS]	0.5	–	–	1
COCC(=O)[C@H](C)C[C@H](C)\C=C/C=C/C=C(\C)[C@H](C[C@@H]1CC[C@@H](C)[C@](O)(C(=O)C(=O)N2CCCC[C@H]2C(=O)OCCCc2ccc(OC)c(OC)c2)O1)OC	43	inactive	–	–
COCC(=O)[C@H](C)C[C@H](C)\C=C/C=C/C=C(\C)[C@H](C[C@@H]1CC[C@@H](C)[C@](O)(C(=O)C(=O)N2CCCC[C@H]2C(=O)O[C@@H](CC(=O)[C@H](C)/C=C(\C)C=O)[C@H](C)C[C@@H]2CC[C@@H](O)[C@H](OC)C2)O1)OC	4	inactive	–	–
COCC(=O)[C@H](C)C[C@H](C)\C=C/C=C/C=C(\C)[C@H](C[C@@H]1CC[C@@H](C)[C@](O)(C(=O)C(=O)N2CCCC[C@H]2C(=O)OCc2ccccc2)O1)OC	15	inactive	–	–
